Laboratory results as given in patent US7585851B2, “3′-prodrugs of 2′-deoxy-β-L-nucleosides” (priority 2000, dated 2009).
pEC50: −log10 of the molar value. “Also recorded” adds a separate entry of the source. Read-outs that look alike come from different tables or passages of the source.

What was measured:
Rhinovirus type 5 = assay: Antiviral panel: Rhinovirus type 5 (KB); assay type: cell-based
HCMV = assay: Antiviral panel: HCMV (HFF); assay type: cell-based
Influenza A/H3N2 = assay: Antiviral panel: Influenza A/H3N2 (MDCK); assay type: cell-based
[1] = tested on: HFF, human foreskin fibroblast
HSV-1 = assay: Antiviral panel: HSV-1 (HFF); assay type: cell-based
[2] = tested on: CV-1, African green monkey kidney fibroblast cells
[3] = assay type: in vivo; conditions: woodchuck; for AUCt→24: t = […]; for Cmax: analyte = label, read-out: Cmax in plasma
bone marrow cells = assay: Mouse micronucleus assay; assay type: in vivo; conditions: single oral dose up to 2000 mg/kg, male and female mice
Procedure: L-dC was tested for its potential to induce micronucleated polychromatic erythrocytes (MPCE) in the bone marrow cells of male and female mice. L-dC at concentrations of 500, 1000, and 2000 mg/kg and positive and negative controls were tested. Study […] as a single dose. Two harvests approximately 24 and 48 hours after L-dC or negative control administration were performed, and a single harvest approximately 24 hours after positive control administration was performed. Five male and five female mice per dose group per harvest time were used. The percentage of polychromatic erythrocytes (PCE) and MPCE frequency were determined for each timepoint.

Measles = assay: Antiviral panel: Measles (CV-1); assay type: cell-based
[4] = tested on: Escherichia coli strain WP2uvrA; assay: Plate incorporation mutation assay, E. coli; conditions: with and without rat liver S-9; up to 5000 mg/plate, 5000 μg/plate
Procedure: (§1) L-dC was tested for its potential to cause mutation at the histidine operon of Salmonella typhimurium strains TA98, TA100, TA1535, and TA1537 and at the tryptophan opeton of Escherichia coli strain WP2uvrA. L-dC at concentrations of […] plus positive and negative controls were tested. […] After incubation for approximately 68 hours, L-dC and controls were evaluated for the number of revertants per plate and integrity of the background microcolony lawn.

[5] = tested on: Daudi, Burkitt's B-cell lymphoma
HepG2 cells = assay: Mitochondrial toxicity assay in HepG2 cells; assay type: cell-based, human
[6] = monkey, in vivo, 2000 mg/kg
[7] = Bioavailability of the prodrugs of L-dC in monkeys, with and without L-dT; conditions: oral
[8] = assay type: in vivo, cynomologus monkey
Procedure: The pharmacokinetics of L-dC following IV and oral administration of L-dC to cynomologus monkeys was determined. […] Following a six week washout period, the same three monkeys received an identical oral dose of L-dC. Blood samples for pharmacokinetic analysis were collected pre-dose and at 0.25, 0.5, 1, 2, 3, 6, 8 and 24 hours after dosing. Urine samples for pharmacokinetic analyses were collected via pan catch pre-dose and over the following intervals post-dose: 0-2, […], 4-8, and 8-12 hours, and then over 12-hour intervals thereafter through 336 hours post-dose. The drug was detected and the concentration determined using a reverse-phase high-performance liquid chromatography technique.

[9] = Oral bioavailability of L-dC via dival-L-dC in cynomologus monkey (HPLC study); conditions: cynomolgus monkey, in vivo, po
Description: The drug was quantitated in plasma and in urine using HPLC analysis.

[10] = tested on: Salmonella typhimurium strains TA98, TA100, TA1535, and TA1537; assay: Plate incorporation mutation assay, S. typhimurium; conditions: with and without rat liver S-9; up to 5000 mg/plate, 5000 μg/plate
Procedure: as §1

[11] = rat
Procedure: The drug was detected and the concentration determined in plasma and urine using a reverse-phase HPLC technique. The data were analyzed by a non-modeling mathematical method and the AUCs derived by the linear trapezoidal rule.

[12] = tested on: MDCK, canine kidney epithelial cells
Parainfluenza type 3 = assay: Antiviral panel: Parainfluenza type 3 (MA-104); assay type: cell-based
Influenza A/H1N1 = assay: Antiviral panel: Influenza A/H1N1 (MDCK); assay type: cell-based
DHBV = DHBV DNA synthesis in primary duck hepatocyte cultures; assay type: cell-based, duck hepatitis B virus; conditions: primary duck hepatocytes (PDH)
WHV = assay: Woodchuck model of chronic hepatitis B infection, 12 weeks oral; conditions: 1 mg/kg/day orally, woodchucks
Procedure: WHV DNA and body weight were measured on Days 0, 1, 3, 7, 14, 21, 28, 42, 56, and 84 as well as on post-treatment Days 7, 14, 21, 28, 42, 56, 70, and 84. WHV DNA levels were determined by quantitative PCR. Appropriate samples for hematology, serum chemistries, WHV serology, and liver biopsy were collected pretreatment and on Day 84.

[13] = tested on: cytosolic extracts of HepG2 cells; assay: Steady state phosphorylation kinetics in HepG2 cytosolic extracts; assay type: biochemical, human
[14] = HepG2, L-dC 10, FIAU 10, ZDV 50, ddC 1 μM
[15] = L-dC 10 mg/kg IV, cynomologus monkey
[16] = L-dC 10 mg/kg oral, cynomologus monkey

**Q.** With `Nc1ccn([C@@H]2C[C@@H](O)[C@H](CO)O2)c(=O)n1` [L-dC, 2′-deoxy-β-L-cytidine] as the compound, how does the pEC50 (Rhinovirus type 5) read?
**A.** The pEC50 was less than 4.00.

**Q.** What about the EC50 (HCMV) of the same compound?
**A.** Its EC50 is greater than 100 µg/mL.

**Q.** And the pEC50 (Influenza A/H3N2)?
**A.** Its pEC50 is less than 4.00.

**Q.** What about the CC50 [1] of the same compound?
**A.** The CC50 was greater than 100 µg/mL.

**Q.** What about the EC50 (HSV-1) of the same compound?
**A.** Its EC50 is greater than 100 µg/mL.

**Q.** And the CC50 [2]?
**A.** Its CC50 is greater than 100 µM.

**Q.** And the CL ([3]; L-dC 10 mg/kg IV)?
**A.** Its CL is 6.5 mL/min/kg.

**Q.** And the Tmax ([3]; L-dC 10 mg/kg IV)?
**A.** The Tmax was 0 h.

**Q.** What about the Vd ([3]; L-dC 10 mg/kg IV) of the same compound?
**A.** The Vd was 1.17 L/kg.

**Q.** What about the t1/2 ([3]; L-dC 10 mg/kg IV) of the same compound?
**A.** The t1/2 was 2.85 h.

**Q.** And the AUCt→24 ([3]; L-dC 10 mg/kg IV)?
**A.** The AUCt→24 was 174 µM·h.

**Q.** What about the Cmax ([3]; L-dC 10 mg/kg IV) of the same compound?
**A.** The Cmax was 112 µM.

**Q.** What about the “oral bioavailability F” value ([3]; L-dC 10 mg/kg PO vs IV) of the same compound?
**A.** The value was 9.57%.

**Q.** And the Tmax ([3]; L-dC 10 mg/kg PO)?
**A.** Its Tmax is 3 h.

**Q.** And the t1/2 ([3]; L-dC 10 mg/kg PO)?
**A.** Its t1/2 is 5.22 h.

**Q.** And the AUCt→24 ([3]; L-dC 10 mg/kg PO)?
**A.** The AUCt→24 was 11.3 µM·h.

**Q.** What about the Cmax ([3]; L-dC 10 mg/kg PO) of the same compound?
**A.** Its Cmax is 1.37 µM.

**Q.** And the micronucleus assay result (bone marrow cells)?
**A.** The micronucleus assay result was “negative; also recorded: not clastogenic”.

**Q.** What about the pEC50 (Measles) of the same compound?
**A.** Its pEC50 is less than 4.00.

**Q.** And the mutagenicity [4]?
**A.** The mutagenicity was “no evidence of mutagenicity; also recorded: not mutagenic”.

**Q.** What about the CC50 [5] of the same compound?
**A.** The CC50 was greater than 50 µg/mL.

**Q.** What about the “effect on mitochondrial DNA content” value (HepG2 cells; HepG2, 14 days, concentrations up to 0.10 μM) of the same compound?
**A.** The value was “no effect”.

**Q.** And the CC50 (HepG2 cells; HepG2, after 14 days of treatment)?
**A.** Its CC50 is greater than 2000 µM.

**Q.** What about the “L-Lactate, % of Control” value (HepG2 cells; [14]) of the same compound?
**A.** The value was 101 ± 2 % of Control.

**Q.** What about the “Lipid Droplet Formation” value (HepG2 cells; [14]) of the same compound?
**A.** Its value is “negative”.

**Q.** What about the “mtDNA, % of Control” value (HepG2 cells; [14]) of the same compound?
**A.** The value was 107 ± 8 % of Control.

**Q.** What about the “Mitochondrial Morphology” value (HepG2 cells; HepG2, L-dC 10, FIAU 10, ZDV 50, ddC 1 μM, electron microscopy) of the same compound?
**A.** The value was “No discernible changes; also recorded: normal”.

**Q.** And the “estimated terminal phase mean half-lives” value [6]?
**A.** Its value is 4 to 5 h.

**Q.** What about the “% BA w/ L-dT” value ([7]; coadministered with 10 mg/kg L-dT) of the same compound?
**A.** Its value is 11.9 ± 1.7%.

**Q.** And the “% BA (bioavailability of L-dC)” value ([7]; estimated relative to AUC of L-dC (oral dose))?
**A.** The value was 16.4 ± 5.0%.

**Q.** And the “renal clearance as share of total L-dC clearance” value ([8]; IV)?
**A.** Its value is 87%.

**Q.** And the “share of the dose recovered in the urine, by analyte” value ([8]; IV L-dC, analyte = label)?
**A.** Its value is 94%.

**Q.** And the “administered dose recovered in urine” value ([8]; IV, within 2 hours)?
**A.** Its value is 71%.

**Q.** What about the CL [8, 15] of the same compound?
**A.** The CL was 8.83 mL/min/kg.

**Q.** And the CLR [8, 15]?
**A.** The CLR was 7.67 mL/min/kg.

**Q.** What about the Cmax [8, 15] of the same compound?
**A.** Its Cmax is 95.7 µM.

**Q.** What about the Tmax [8, 15] of the same compound?
**A.** The Tmax was 0 h.

**Q.** And the Vd [8, 15]?
**A.** The Vd was 1.22 L/kg.

**Q.** And the t1/2 [8, 15]?
**A.** The t1/2 was 1.59 h.

**Q.** And the “oral bioavailability F” value ([8]; L-dC 10 mg/kg oral vs IV, cynomologus monkey)?
**A.** Its value is 16.4%.

**Q.** What about the Cmax [8, 16] of the same compound?
**A.** Its Cmax is 3.38 µM.

**Q.** What about the Tmax [8, 16] of the same compound?
**A.** The Tmax was 2.33 h.

**Q.** And the “terminal t1/2” value [8, 16]?
**A.** The value was 2.95 h.

**Q.** And the “share of drug excreted / recovered dose in urine, by analyte” value ([8]; oral L-dC, analyte = label)?
**A.** Its value is roughly 69%.

**Q.** And the “administered oral dose recovered in urine” value ([8]; after 72 hours)?
**A.** Its value is 15.5%±8%.

**Q.** What about the “administered oral dose recovered in urine” value ([8]; within 12 hours) of the same compound?
**A.** The value was “Approximately 8.5%”.

**Q.** What about the “share of drug excreted / recovered dose in urine, by analyte” value [9] of the same compound?
**A.** Its value is roughly 89%.

**Q.** And the mutagenicity [10]?
**A.** Its mutagenicity is “no evidence of mutagenicity; also recorded: not mutagenic”.

**Q.** What about the “AUC0.25→8 (table head AUC0-25-28)” value ([11]; L-dC 10 mg/kg IV) of the same compound?
**A.** The value was 30100 µM·h.

**Q.** What about the CL ([11]; L-dC 10 mg/kg IV) of the same compound?
**A.** The CL was 24 mL/min/kg.

**Q.** What about the Tmax ([11]; L-dC 10 mg/kg IV) of the same compound?
**A.** Its Tmax is 0 h.

**Q.** What about the Vd ([11]; L-dC 10 mg/kg IV) of the same compound?
**A.** The Vd was 2.53 L/kg.

**Q.** And the t1/2 ([11]; L-dC 10 mg/kg IV)?
**A.** The t1/2 was 1.21 h.

**Q.** What about the “oral bioavailability F” value ([11]; L-dC 10 mg/kg oral vs IV) of the same compound?
**A.** The value was 15.4%.

**Q.** What about the “AUC0.25→8 (table head AUC0-25-28)” value ([11]; L-dC 10 mg/kg oral) of the same compound?
**A.** Its value is 4770 µM·h.

**Q.** What about the Tmax ([11]; L-dC 10 mg/kg oral) of the same compound?
**A.** Its Tmax is 1.0 h.

**Q.** And the t1/2 ([11]; L-dC 10 mg/kg oral)?
**A.** The t1/2 was 2.52 h.

**Q.** What about the CC50 [12] of the same compound?
**A.** The CC50 was greater than 100 µM.

**Q.** What about the pEC50 (Parainfluenza type 3) of the same compound?
**A.** Its pEC50 is less than 4.00.

**Q.** And the pEC50 (Influenza A/H1N1)?
**A.** The pEC50 was less than 4.00.

**Q.** And the pEC50 (DHBV)?
**A.** Its pEC50 is 6.06.

**Q.** What about the “end-of-treatment liver biopsy histomorphology” value (WHV) of the same compound?
**A.** Its value is “no histomorphological evidence of fatty changes; also recorded: no evidence of fatty change”.

**Q.** And the Vmax of phosphorylation [13]?
**A.** Its Vmax of phosphorylation is 1.12 mmol/min/mg protein.
